*1 amine or outer side, *2 acyl side, *3 side chain or, on linkers, in order; H or OH if unused. Where a SMILES comes first, the peptide text is derived from it. Bridges are numbered along the chain shown (N, C = ends). Side-chain parts run from the residue outwards. [ ]: non-standard residue; d: D form. The star is where a group is joined. X14 = CC(=O)N(C)CCCC[C@H](CC(=O)C1(N*)CCOCC1)C(=O)N[C@@H](CC(N)=O)C(=O)N[C@@H](Cc1cccnc1)C(=O)N(C)CC(=O)N(C)C; X18 = O=C(O)CCCCCCCCCCCCCCCCC(=O)N[C@@H](CCC(=O)NCCOCCOCCOCCOCCOCOCCOCCOCCOCCOCCOCCOCCC(=O)*)C(=O)O; Trp(7-Me) = Cc1cccc2c(C[C@H](N)C(=O)O)c[nH]c12; C22 diacid = O=C(O)CCCCCCCCCCCCCCCCCCCCC(=O)*; C18 diacid = O=C(O)CCCCCCCCCCCCCCCCC(=O)*; γGlu = O=C(O)[C@H](CCC(=O)[*:2])N[*:1]; 2Nal = N[C@@H](Cc1ccc2ccccc2c1)C(=O)O; AEF = NCCOc1ccc(C[C@H](N)C(=O)O)cc1; X2 = C[N+](C)(C)C[C@@H](CC(=O)O)N*; 3Pal = N[C@@H](Cc1cccnc1)C(=O)O; Lys(Me) = CNCCCC[C@H](N)C(=O)O; NMeK = CN[C@@H](CCCCN)C(=O)O; Pen = CC(C)(S)[C@H](N)C(=O)O; Suc = O=C(CCC(=O)[*:2])[*:1]; Thp = NC1(C(=O)O)CCOCC1; X1 = C[N+](C)(C)CCCCC*; AEEA = NCCOCCOCC(=O)O; Sar = CNCC(=O)O
Columns and labels:
[1] = system: IL-23-stimulated phosphorylated STAT3 in peripheral blood mononuclear cells (PBMCs); assay: PBMC pSTAT3 Assay; assay type: cell-based; details: PBMCs from healthy donors; 30 min preincubation with peptide; IL-23 5 ng/mL for 30 min; phospho-STAT3 by MSD
Method in brief: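 Healthy-donor PBMCs expanded 4 days on anti-CD3 with 100 ng/mL IL-1β, starved ~4 h in RPMI-0.1% BSA, preincubated 30 min with peptide, then stimulated 30 min at 37 °C with 5 ng/mL IL-23. Lysate pSTAT3 measured by MSD phospho-STAT panel; IC50 derived.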

IL-23R = target: T1, IL-23R (Homo sapiens, UniProt Q5VWK5); assay: IL23R Reporter Assay; assay type: cell-based; details: HEK293 cells containing IL-23R, IL-12Rβ1 and STAT-inducible firefly luciferase reporter; 10 ng/mL IL-23 (EC90); 5 h
T1 construct: HEK293 cells containing IL-23R, IL-12Rβ1 and a firefly luciferase reporter gene driven by a STAT-inducible promoter (Promega); host or cells: HEK293
T1 sequence (Q5VWK5 24-629): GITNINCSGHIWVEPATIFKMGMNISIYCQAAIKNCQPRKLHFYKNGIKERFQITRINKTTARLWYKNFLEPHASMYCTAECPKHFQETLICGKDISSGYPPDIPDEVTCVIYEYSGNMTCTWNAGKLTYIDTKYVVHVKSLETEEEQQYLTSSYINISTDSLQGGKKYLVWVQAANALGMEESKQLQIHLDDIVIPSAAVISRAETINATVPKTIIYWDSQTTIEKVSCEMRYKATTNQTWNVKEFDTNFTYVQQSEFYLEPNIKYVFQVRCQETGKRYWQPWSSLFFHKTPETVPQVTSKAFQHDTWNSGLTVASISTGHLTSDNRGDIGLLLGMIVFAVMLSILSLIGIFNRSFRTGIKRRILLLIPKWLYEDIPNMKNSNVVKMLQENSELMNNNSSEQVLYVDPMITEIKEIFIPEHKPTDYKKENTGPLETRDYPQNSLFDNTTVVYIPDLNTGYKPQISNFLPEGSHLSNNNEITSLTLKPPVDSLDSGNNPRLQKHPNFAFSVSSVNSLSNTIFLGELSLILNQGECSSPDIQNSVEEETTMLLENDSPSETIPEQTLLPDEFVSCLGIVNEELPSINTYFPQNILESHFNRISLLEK
Method in brief: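 HEK293 cells carrying IL-23R, IL-12Rβ1 and a STAT-driven firefly luciferase reporter (4000 cells/well) received compound, then 10 ng/mL IL-23 solution (EC90), and were incubated for 5 h at 37° C. BioGlo luminescence was normalised to IL-23 alone (0%) and 30 μM control inhibitor (100%). IC50 came from a 4-parameter Hill fit.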

| Structure (SMILES) | IC50 [1] [nM] | IC50 (IL-23R) [nM] |
| --- | --- | --- |
| C=C(N[C@@H](CC(N)=O)C(=O)N[C@@H](CC)C(C)N(C)CC(=O)N(C)C)[C@H](CCCCN(C)C(C)=O)NC(=O)C1(NC(=O)[C@H](Cc2ccc3ccccc3c2)NC(=O)[C@H](Cc2ccc(OCCCCC[N+](C)(C)C)cc2)NCC2NC(=O)[C@H](CCCCNC(=O)COCCOCCNC(=O)COCCOCCNC(=O)CC[C@H](NC(=O)CCCCCCCCCCCCCCCCCCC(=O)O)C(=O)O)NC(=O)[C@H](CC3=CCc4c(C)cccc43)NC(=O)[C@H]([C@@H](C)O)NC(=O)[C@H](CC(=O)N(C)C)NC(=O)[C@@H](NC(=O)CCOCCOCC[N+](C)(C)C)C(C)(C)SSC2(C)C)CCCCC1 (stereo partly drawn) [compound 127, cPEG3aCO-Pen(3)-N(N(Me)2)-T-7MeW-K(PEG2PEG2gEC20OH)-Pen(3)-TMAPF-2Nal-THP-K(NMeAc)-N-3Pya-Sar-CON(Me)2] | 0.5 to 5 | 50 to 500 |
| CC(=O)NCCCC[C@@H]1NC(=O)[C@H](Cc2c[nH]c3c(C)cccc23)NC(=O)[C@H]([C@@H](C)O)NC(=O)[C@H](CC(N)=O)NC(=O)[C@@H](NC(=O)[C@@H](CCCCNC(=O)COCCOCCNC(=O)COCCOCCNC(=O)CC[C@H](NC(=O)CCCCCCCCCCCCCCCCC(=O)O)C(=O)O)NC(C)=O)C(C)(C)SSC(C)(C)[C@@H](C(=O)N[C@@H](Cc2ccc(OCCN)cc2)C(=O)N[C@@H](Cc2ccc3ccccc3c2)C(=O)NC2(C(=O)N[C@@H](CCC(=O)O)C(=O)N[C@@H](CC(N)=O)C(=O)N[C@@H](Cc3cccnc3)C(=O)N(C)CC(N)=O)CCOCC2)NC1=O [compound 58, MeCO-k(PEG2PEG2gEC18OH)-Pen(3)-N-T-7MeW-K(Ac)-Pen(3)-AEF-2Nal-THP-E-N-3Pya-Sar-CONH2] (Ac-[dK]([AEEA-AEEA-γGlu-C18 diacid])[Pen]NT[Trp(7-Me)]K(Ac)[Pen][AEF][2Nal][Thp]EN[3Pal][Sar]-NH2; disulfide 2-7) | < 0.5 | 50 to 500 |
| CC(=O)N(C)CCCC[C@H](CC(=O)C1(NC(=O)[C@H](Cc2ccc3ccccc3c2)NC(=O)[C@H](Cc2ccc(OCCCCC[N+](C)(C)C)cc2)NC(=O)[C@H]2NC(=O)[C@H](CCCCN(C)C(C)=O)NC(=O)[C@H](Cc3c[nH]c4c(C)cccc34)NC(=O)[C@H]([C@@H](C)O)NC(=O)[C@H](CC(=O)N(C)C)NC(=O)[C@@H](NC(=O)COCCOCCNC(=O)COCCOCCNC(=O)CC[C@H](NC(=O)CCCCCCCCCCCCCCCCCCCCC(=O)O)C(=O)O)C(C)(C)SSC2(C)C)CCOCC1)C(=O)N[C@@H](CC(N)=O)C(=O)N[C@@H](Cc1cccnc1)C(=O)N(C)CC(=O)N(C)C [compound 119, HOC20gEPEG2PEG2CO-Pen(3)-N(N(Me)2)-T-7MeW-K(NMeAc)-Pen(3)-TMAPF-2Nal-THP-K(NMeAc)-N-3Pya-Sar-CON(Me)2] ({C22 diacid-γGlu-AEEA-AEEA}-[Pen]D(NMe2)T[Trp(7-Me)][Lys(Me)](Ac)[Pen]Y(X1)[2Nal]-X14; disulfide 1-6) | < 0.5 | < 50 |
| CC(=O)NCCCC[C@@H]1NC(=O)[C@H](Cc2c[nH]c3c(C)cccc23)NC(=O)[C@H]([C@@H](C)O)NC(=O)[C@H](CC(N)=O)NC(=O)[C@@H](NC(=O)[C@@H](CCCNC(=N)N)NC(C)=O)C(C)(C)SSC(C)(C)[C@@H](C(=O)N[C@@H](Cc2ccc(OCCN)cc2)C(=O)N[C@@H](Cc2ccc3ccccc3c2)C(=O)NC2(C(=O)N[C@@H](CCCCNC(=O)COCCOCCNC(=O)COCCOCCNC(=O)CC[C@H](NC(=O)CCCCCCCCCCCCCCCCC(=O)O)C(=O)O)C(=O)N[C@@H](CC(N)=O)C(=O)N[C@@H](Cc3cccnc3)C(=O)N(C)[C@@H](CCCCNC(=O)CCC(=O)N[C@H](CC(=O)O)C[N+](C)(C)C)C(N)=O)CCOCC2)NC1=O [compound 21, MeCO-r-Pen(3)-N-T-7MeW-K(Ac)-Pen(3)-AEF-2Nal-THP-K(PEG2PEG2gEC18OH)-N-3Pya-NMeK(d)-CONH2] (Ac-[dR][Pen]NT[Trp(7-Me)]K(Ac)[Pen][AEF][2Nal][Thp]K([AEEA-AEEA-γGlu-C18 diacid])N[3Pal][NMeK]([Suc-X2])-NH2; disulfide 2-7) | < 0.5 | < 50 |
| CC(=O)NCCCC[C@@H]1NC(=O)[C@H](Cc2c[nH]c3c(C)cccc23)NC(=O)[C@H]([C@@H](C)O)NC(=O)[C@H](CCCCNC(=O)CCOCCOCCOCCOCCOCCOCCOCOCCOCCOCCOCCOCCNC(=O)CC[C@H](NC(=O)CCCCCCCCCCCCCCCCC(=O)O)C(=O)O)NC(=O)[C@@H](NC(C)=O)C(C)(C)SSC(C)(C)[C@@H](C(=O)N[C@@H](Cc2ccc(OCCN)cc2)C(=O)N[C@@H](Cc2ccc3ccccc3c2)C(=O)NC2(C(=O)N[C@@H](CCC(=O)O)C(=O)N[C@@H](CC(N)=O)C(=O)N[C@@H](Cc3cccnc3)C(=O)N(C)CC(N)=O)CCOCC2)NC1=O [compound 97, MeCO-Pen(3)-K(PEG12gEC18OH)-T-7MeW-K(Ac)-Pen(3)-AEF-2Nal-THP-E-N-3Pya-Sar-CONH2] (Ac-[Pen]K(X18)T[Trp(7-Me)]K(Ac)[Pen][AEF][2Nal][Thp]EN[3Pal][Sar]-NH2; disulfide 1-6) | < 0.5 | < 50 |
| CC(=O)NCCCC[C@@H]1NC(=O)[C@H](Cc2c[nH]c3c(C)cccc23)NC(=O)[C@H]([C@@H](C)O)NC(=O)[C@H](CC(N)=O)NC(=O)[C@@H](NC(=O)[C@@H](CCCNC(=N)N)NC(C)=O)C(C)(C)SSC(C)(C)[C@@H](C(=O)N[C@@H](Cc2ccc(OCCN)cc2)C(=O)N[C@@H](Cc2ccc3ccccc3c2)C(=O)NC2(C(=O)N[C@@H](CCCCNC(=O)CCC(=O)N[C@H](CC(=O)O)C[N+](C)(C)C)C(=O)N[C@@H](CC(N)=O)C(=O)N[C@@H](Cc3cccnc3)C(=O)N(C)CC(=O)N[C@@H](CCCCNC(=O)COCCOCCNC(=O)COCCOCCNC(=O)CC[C@H](NC(=O)CCCCCCCCCCCCCCCCC(=O)O)C(=O)O)C(N)=O)CCOCC2)NC1=O [compound 51, MeCO-r-Pen(3)-N-T-7MeW-K(Ac)-Pen(3)-AEF-2Nal-THP-K(d)-N-3Pya-Sar-K(PEG2PEG2gEC18OH)-CONH2] (Ac-[dR][Pen]NT[Trp(7-Me)]K(Ac)[Pen][AEF][2Nal][Thp]K([Suc-X2])N[3Pal][Sar]K([AEEA-AEEA-γGlu-C18 diacid])-NH2; disulfide 2-7) | < 0.5 | ≥ 500 |
| CC(=O)NCCCC[C@@H]1NC(=O)[C@H](Cc2c[nH]c3c(C)cccc23)NC(=O)[C@H]([C@@H](C)O)NC(=O)[C@H](CC(N)=O)NC(=O)[C@@H](NC(=O)[C@@H](CCCNC(=N)N)NC(=O)CCC(=O)N[C@H](CC(=O)O)C[N+](C)(C)C)C(C)(C)SSC(C)(C)[C@@H](C(=O)N[C@@H](Cc2ccc(OCCN)cc2)C(=O)N[C@@H](Cc2ccc3ccccc3c2)C(=O)NC2(C(=O)N[C@@H](CCC(=O)O)C(=O)N[C@@H](CC(N)=O)C(=O)N[C@@H](Cc3cccnc3)C(=O)N(C)[C@@H](CCCCNC(=O)COCCOCCNC(=O)COCCOCCNC(=O)CC[C@H](NC(=O)CCCCCCCCCCCCCCCCC(=O)O)C(=O)O)C(N)=O)CCOCC2)NC1=O [compound 31, succiniccarn-r-Pen(3)-N-T-7MeW-K(Ac)-Pen(3)-AEF-2Nal-THP-E-N-3Pya-NMeK(PEG2PEG2gEC18OH)-CONH2] ({X2-Suc}-[dR][Pen]NT[Trp(7-Me)]K(Ac)[Pen][AEF][2Nal][Thp]EN[3Pal][NMeK]([AEEA-AEEA-γGlu-C18 diacid])-NH2; disulfide 2-7) | < 0.5 | 50 to 500 |
| CC(=O)N(C)CCCC[C@@H]1NC(=O)[C@H](CC2=CCc3c(C)cccc32)NC(=O)[C@H]([C@@H](C)O)NC(=O)[C@H](CC(=O)N(C)C)NC(=O)[C@@H](NC(=O)CCOCCOCC[N+](C)(C)C)C(C)(C)SSC(C)(C)C(CN[C@@H](Cc2ccc(OCCNC(=O)C[N+](C)(C)CCNC(=O)CCOCCOCCOCCOCCOCCOCCNC(=O)CC[C@H](CC(=O)CCCCCCCCCCCCCCCCCCC(=O)O)C(=O)O)cc2)C(=O)N[C@@H](Cc2ccc3ccccc3c2)C(=O)NC2(C(=O)N[C@@H](CCCCN(C)C(C)=O)C(=O)N[C@@H](CC(N)=O)C(=O)N[C@@H](Cc3cccnc3)C(C)N(C)CC(=O)N(C)C)CCOCC2)NC1=O (stereo partly drawn) [compound 140, cPEG3aCO-Pen(3)-N(N(Me)2)-T-7MeW-K(NMeAc)-Pen(3)-AEF(SP6PEG6gEC20OH)-2Nal-THP-K(NMeAc)-N-3Pya-Sar-CON(Me)2] | < 0.5 | 50 to 500 |

Reference: patent US20260250320A1, “LIPIDATED PEPTIDE INHIBITORS OF INTERLEUKIN-23 RECEPTOR” (Janssen Pharmaceutica NV, priority 2023, published 2026)
